Values of other authors in patent US20080287669A1, “METHODS AND COMPOSITIONS FOR IDENTIFYING COMPOUNDS USEFUL IN NUCLEIC ACID PURIFICATION” (priority 2007, published 2008).
Structures can show the parent of a compound that is named as a salt. Where two headings read alike, the source gives them in different places.

Details: for Dielectric Constant: Table 4, exemplary solvents
[1] = Table 2, very soluble organic solvents
[2] = Table 3, miscible organic solvents
[3] = Table 1, soluble organic solvents

Compound | Dielectric Constant (DC) [2] | Dielectric Constant (DC) [3] | other results
OCCCCC(O)CO (stereo not shown) [1,2,6-hexanetriol] | – | – | Dielectric Constant (DC) [1]: 31.5
CC(O)CO (stereo not shown) [1,2-propanediol] | 27.5 | – | –
CC(O)CCO (stereo not shown) [1,3-butanediol] | 28.8 | – | –
OCCCO [1,3-propanediol] | 35.1 | – | –
OCCCCCO [1,5-pentanediol] | – | 26.2 | –
Brc1cccc2ccccc12 [1-bromonaphthalene] | – | 4.77 | –
Cc1ccnc(C)c1 [2,4-lutidine] | – | – | Dielectric Constant (DC) [1]: 9.6
Cc1ccc(C)c(O)c1 [2,5-xylenol] | – | 5.36 | –
Cc1cccc(C)n1 [2,6-lutidine] | 7.33 | – | –
CC1CCCO1 (stereo not shown) [2-methyl-tetrahydrofuran] | – | 6.97 | –
CCCC(C)O (stereo not shown) [2-pentanol] | – | – | Dielectric Constant (DC) [1]: 13.71
Cc1ccccn1 [2-picoline] | – | – | Dielectric Constant (DC) [1]: 10.18
CC(C)O [2-propanol] | 20.18 | – | –
Cc1cc(C)cc(O)c1 [3,5-xylenol] | – | 9.06 | –
Cc1cccnc1 [3-picoline] | 11.1 | – | –
Cc1ccncc1 [4-picoline] | 12.2 | – | –
CN1CCCC1=O [N-methyl-2-pyrrolidone] | – | – | Dielectric Constant (DC) [1]: 32.2
CC=O [acetaldehyde] | 21 | – | –
CC(N)=O [acetamide] | – | – | Dielectric Constant (DC) [1]: 67.6
CC(=O)O [acetic acid] | 6.2 | – | –
CC(=O)OC(C)=O [acetic anhydride] | – | – | Dielectric Constant (DC) [1]: 22.45
C=CCO [allyl alcohol] | 19.7 | – | –
OCc1ccccc1 [benzyl alcohol] | – | 11.92 | –
CCCC=O [butanal] | – | 13.45 | –

Compound | Dielectric Constant (DC) [2] | Dielectric Constant (DC) [3] | other results
CCCC(=O)O [butanoic acid] | 2.98 | – | –
CCCCN [butylamine] | 4.71 | – | –
S=C=S [carbon disulfide] | – | 2.63 | –
FC(F)Cl [chlorodifluoromethane] | – | – | Dielectric Constant (DC) [1]: 6.11
O=C1CCCCC1 [cyclohexanone] | – | 16.1 | –
NC1CCCCC1 [cyclohexylamine] | – | 4.55 | –
CC(=O)CC(C)(C)O [diacetone alcohol] | 18.2 | – | –
CCCCNCCCC [dibutylamine] | – | 2.77 | –
FC(F)(Cl)Cl [dichlorodifluoromethane] | – | 3.5 | –
CCOCCOCCOCC [diethylene glycol diethyl ether] | – | – | Dielectric Constant (DC) [1]: 5.7
NCCNCCN [diethylenetriamine] | 12.62 | – | –
CCC(=O)CC [diethylketone] | – | – | Dielectric Constant (DC) [1]: 17
COC [dimethylether] | – | 6.18 | –
C[S+](C)[O-] [dimethylsulfoxide] | 47.24 | – | Dielectric Constant (DC): 38; Dielectric Constant: 47.2
CCCNCCC [dipropylamine] | – | 3.07 | –
CCO [ethanol, reference compound] | 25.3 | – | Dielectric Constant: 25.3
NCCO [ethanolamine] | 31.94 | – | –
CCOC(C)=O [ethyl acetate] | – | 6.08 | –
CCOC=O [ethyl formate] | – | 8.57 | –
CCOC(=O)CC(C)=O [ethylacetoacetate] | – | – | Dielectric Constant (DC) [1]: 14
CCN [ethylamine] | 8.7 | – | –
CCOCCOC(C)=O [ethylene glycol ethylether acetate] | – | – | Dielectric Constant (DC) [1]: 7.57
COCCOC(C)=O [ethylene glycol monomethylether acetate] | – | – | Dielectric Constant (DC) [1]: 8.25
CCCCOCCO [ethyleneglycol monobutyl ether] | 9.3 | – | –

Compound | Dielectric Constant (DC) [2] | Dielectric Constant (DC) [3] | other results
NC=O [formamide] | – | – | Dielectric Constant (DC): 111
O=Cc1ccco1 [furfural] | – | 42.1 | –
OCc1ccco1 [furfuryl alcohol] | 16.85 | – | –
OCC(O)CO [glycerol] | 46.53 | – | –
CC(C)CN [isobutylamine] | 4.43 | – | –
CC(=O)C=C(C)C [mesityl oxide] | – | 15.6 | –
CCCCCC(C)=O [methyl pentyl ketone] | – | – | Dielectric Constant (DC) [1]: 11.95
COC(C)=O [methylacetate] | – | – | Dielectric Constant (DC) [1]: 7.07
C1COCCN1 [morpholine] | 7.42 | – | –
C[N+](=O)[O-] [nitromethane] | – | 37.27 | –
Cc1ccccc1O [o-cresol] | – | 6.76 | –
CCCCC(=O)O [pentanoic acid] | – | 2.66 | –
CCCCCN [pentylamine] | 4.27 | – | –
CCC=O [propanal] | – | 18.5 | –
CCC(=O)O [propanoic acid] | 3.44 | – | –
CC1COC(=O)O1 (stereo not shown) [propylene carbonate] | – | – | Dielectric Constant (DC) [1]: 66.14
C1CCNC1 [pyrrolidine] | 8.3 | – | –
O=S1(=O)CCCC1 [sulfolane] | 43.26 | – | Dielectric Constant: 43.26
C1CCOC1 [tetrahydrofuran] | 7.52 | – | Dielectric Constant: 7.52
O=C(O)C(Cl)(Cl)Cl [trichloroacetic acid] | – | – | Dielectric Constant (DC): 4.6
CCOP(=O)(OCC)OCC [triethyl phosphate] | – | 13.2 | –
OCCOCCOCCO [triethyleneglycol] | 23.69 | – | –
CN(C)C [trimethylamine] | – | – | Dielectric Constant (DC) [1]: 2.44
